# Measurements as given in ChEMBL document CHEMBL1136178, “Carbonic anhydrase inhibitors: topically acting antiglaucoma sulfonamides incorporating esters and amides of 3- and 4-carboxybenzolamide” (Bioorg Med Chem Lett, 2003).
# How the values were obtained:
# Carbonic anhydrase 1 = Carbonic anhydrase 1 (Homo sapiens, UniProt P00915)
# Description: Inhibitory activity against human carbonic anhydrase I (hCA I)
# Carbonic anhydrase 2 = Carbonic anhydrase 2 (Homo sapiens, UniProt P00918)
# Description: Inhibitory activity against human carbonic anhydrase II
# Carbonic anhydrase 4 = biological target: T1, Carbonic anhydrase 4 (Bos taurus, UniProt Q95323)
# T1 sequence (Q95323 whole entry): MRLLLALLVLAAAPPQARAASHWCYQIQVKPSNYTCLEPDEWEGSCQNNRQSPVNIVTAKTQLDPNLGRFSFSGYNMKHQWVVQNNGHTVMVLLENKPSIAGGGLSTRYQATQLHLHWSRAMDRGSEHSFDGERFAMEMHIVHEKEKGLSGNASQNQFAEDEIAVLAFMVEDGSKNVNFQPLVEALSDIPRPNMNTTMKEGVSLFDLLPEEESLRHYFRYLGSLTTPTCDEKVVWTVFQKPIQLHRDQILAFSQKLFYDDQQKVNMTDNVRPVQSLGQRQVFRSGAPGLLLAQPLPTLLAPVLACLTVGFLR
# Description: Inhibitory activity against Carbonic anhydrase IV isolated from bovine lung
# Oryctolagus cuniculus [1] = species: Oryctolagus cuniculus
# Description: Fall of intraocular pressure (IOP) after treatment with 50 ug into normotensive rabbit at time interval 30 min at a pH of 7
# Oryctolagus cuniculus [2] = species: Oryctolagus cuniculus; remark: listed apart in the source
# Description: Fall of intraocular pressure (IOP) after treatment with 50 ug into normotensive rabbit at time interval 60 min at a pH of 7
# Oryctolagus cuniculus [3] = species: Oryctolagus cuniculus; remark: listed apart in the source
# Description: Fall of intraocular pressure (IOP) after treatment with 50 ug into normotensive rabbit at time interval 90 min at a pH of 7
# Oryctolagus cuniculus [4] = species: Oryctolagus cuniculus; remark: listed apart in the source
# Description: Fall of intraocular pressure (IOP) after treatment with 50 ug into normotensive rabbit at time interval 240 min at a pH of 7
# Sequence of Carbonic anhydrase 1 (P00915 whole entry): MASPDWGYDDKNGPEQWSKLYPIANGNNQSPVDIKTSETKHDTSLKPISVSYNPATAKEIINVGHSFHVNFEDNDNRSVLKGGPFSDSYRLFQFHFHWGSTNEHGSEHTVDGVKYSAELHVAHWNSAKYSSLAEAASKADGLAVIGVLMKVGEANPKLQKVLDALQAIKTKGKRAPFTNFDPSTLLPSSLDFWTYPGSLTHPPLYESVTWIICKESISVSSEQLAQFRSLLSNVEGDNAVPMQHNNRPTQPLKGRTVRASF
Ki (Carbonic anhydrase 1) [nM],Ki (Carbonic anhydrase 2) [nM],Ki (Carbonic anhydrase 4) [nM],SMILES,Delta IOP (Oryctolagus cuniculus [1]) [mmHg],Delta IOP (Oryctolagus cuniculus [2]) [mmHg],Delta IOP (Oryctolagus cuniculus [3]) [mmHg],Delta IOP (Oryctolagus cuniculus [4]) [mmHg]
16,3.1,12,COCCOC(=O)c1ccc(S(=O)(=O)/N=c2/sc(S(N)(=O)=O)nn2C)cc1,,,,
,,145,CC(=O)/N=c1/sc(S(N)(=O)=O)nn1C [METHAZOLAMIDE],,,,
17,2,8,CC(CN(C)C)OC(=O)c1cccc(S(=O)(=O)Nc2nnc(S(N)(=O)=O)s2)c1 (stereo unspecified),2.5,6.7,8.5,7.9
15,2.1,7,CN(C)CCOC(=O)c1cccc(S(=O)(=O)Nc2nnc(S(N)(=O)=O)s2)c1,4.5,4.9,7.1,5.7
23,5.2,10,Cn1nc(S(N)(=O)=O)s/c1=N/S(=O)(=O)c1cccc(C(=O)OCCO)c1,,,,
14,2.9,11,NS(=O)(=O)c1nnc(NS(=O)(=O)c2ccc(C(=O)OCCO)cc2)s1,,,,
20,4,14,Cn1nc(S(N)(=O)=O)s/c1=N/S(=O)(=O)c1ccc(C(=O)OCCO)cc1,,,,
18,2.2,12,CC(CN(C)C)OC(=O)c1cccc(S(=O)(=O)/N=c2/sc(S(N)(=O)=O)nn2C)c1 (stereo unspecified),,,,
12,2.8,10,COCCOC(=O)c1ccc(S(=O)(=O)Nc2nnc(S(N)(=O)=O)s2)cc1,,,,
16,2.9,10,CN(C)CCOC(=O)c1cccc(S(=O)(=O)/N=c2/sc(S(N)(=O)=O)nn2C)c1,,,,
45,4.6,12,NS(=O)(=O)c1nnc(NS(=O)(=O)c2ccc(C(=O)O)cc2)s1,,,,
,,12,NS(=O)(=O)c1nnc(NS(=O)(=O)c2ccccc2)s1 [BENZOLAMIDE],,,,
15,2,8,CN(C)CCOCCOC(=O)c1cccc(S(=O)(=O)/N=c2/sc(S(N)(=O)=O)nn2C)c1,,,,
13,2.4,14,CN(C)CCOC(=O)c1ccc(S(=O)(=O)/N=c2/sc(S(N)(=O)=O)nn2C)cc1,,,,
13,1.7,9,CN(C)CCOCCOC(=O)c1ccc(S(=O)(=O)/N=c2/sc(S(N)(=O)=O)nn2C)cc1,,,,
16,1.9,7,CCN(CC)CCNC(=O)c1cccc(S(=O)(=O)/N=c2/sc(S(N)(=O)=O)nn2C)c1,,,,
73,5.9,15,Cn1nc(S(N)(=O)=O)s/c1=N/S(=O)(=O)c1cccc(C(=O)O)c1,,,,
13,1.4,10,CC(CN(C)C)OC(=O)c1ccc(S(=O)(=O)Nc2nnc(S(N)(=O)=O)s2)cc1 (stereo unspecified),4.8,5.9,8.2,8
15,1.8,13,CC(CN(C)C)OC(=O)c1ccc(S(=O)(=O)/N=c2/sc(S(N)(=O)=O)nn2C)cc1 (stereo unspecified),,,,
13,1.6,6,CN(C)CCOCCOC(=O)c1cccc(S(=O)(=O)Nc2nnc(S(N)(=O)=O)s2)c1,4.9,4.5,4.1,3.3
11,1.5,10,CN(C)CCOC(=O)c1ccc(S(=O)(=O)Nc2nnc(S(N)(=O)=O)s2)cc1,4.5,5.5,8,7.6
14,1.7,7,CCN(CC)CCNC(=O)c1cccc(S(=O)(=O)Nc2nnc(S(N)(=O)=O)s2)c1,6.5,6.9,9.1,8
12,1.7,8,CCN(CC)CCNC(=O)c1ccc(S(=O)(=O)/N=c2/sc(S(N)(=O)=O)nn2C)cc1,,,,
16,3.1,8,NS(=O)(=O)c1nnc(NS(=O)(=O)c2cccc(C(=O)OCCO)c2)s1,10.5,4.8,2.8,0.5
15,2.9,8,COCCOC(=O)c1cccc(S(=O)(=O)Nc2nnc(S(N)(=O)=O)s2)c1,6,2.5,2,0
68,5.1,13,NS(=O)(=O)c1nnc(NS(=O)(=O)c2cccc(C(=O)O)c2)s1,,,,
50,5.4,14,Cn1nc(S(N)(=O)=O)s/c1=N/S(=O)(=O)c1ccc(C(=O)O)cc1,,,,
17,3.3,9,COCCOC(=O)c1cccc(S(=O)(=O)/N=c2/sc(S(N)(=O)=O)nn2C)c1,,,,
12,1.3,7,CN(C)CCOCCOC(=O)c1ccc(S(=O)(=O)Nc2nnc(S(N)(=O)=O)s2)cc1,2.7,3.9,5.7,6.3
